Reference: paper PMC4498294, “Tetrahydroisoquinolines affect the whole-cell phenotype of Mycobacterium tuberculosis by inhibiting the ATP-dependent MurE ligase” (Journal of Antimicrobial Chemotherapy, 2015)
≈ marks a conversion by molar mass, not a printed value. Like-named read-outs stand apart in the source and are kept apart here. Marks after values point to notes of the source that are not given here.

Experiments:
M. smegmatis mc^2155 = assay: SPOTi assay, M. smegmatis; assay type: cell-based, Mycobacterium smegmatis; conditions: Mycolicibacterium smegmatis, MC^2155
[1] = system: murine macrophage cell line RAW264.7; assay: Eukaryotic cell toxicity assay, RAW264.7; assay type: cell-based; conditions: Mus musculus, read-out: GIC50 RAW264.7
[2] = target: MurE (Rv2158c) protein of M. tuberculosis H37Rv (Mycobacterium tuberculosis, UniProt P9WJL3); assay: Mtb-MurE HPLC inhibition assay; assay type: biochemical; conditions: HPLC assay, 37°C 30 min
M. tuberculosis H37Rv = assay: SPOTi growth inhibition assay, M. tuberculosis H37Rv; assay type: cell-based; conditions: for MIC: Mycobacterium tuberculosis, H37RV
M. aurum = assay: SPOTi assay, M. aurum; assay type: cell-based, Mycobacterium aurum; conditions: Mycolicibacterium aurum
E. coli K12 = assay: SPOTi assay, E. coli; assay type: cell-based, Escherichia coli; conditions: Escherichia coli, K12, LB, 37°C overnight
P. putida = assay: SPOTi assay, P. putida; assay type: cell-based, Pseudomonas putida; conditions: Pseudomonas putida, LB, 37°C overnight
R. equi RHA1 = assay: SPOTi assay, R. equi RHA1; assay type: cell-based, Rhodococcus equi; conditions: Rhodococcus (subgen. Prescottella) equi, RHA1, LB, 30°C 48 h
M. bovis BCG Pasteur = assay: microbe, parasite or virus in culture; assay type: cell-based; conditions: for MIC: Mycobacterium tuberculosis variant bovis BCG, BCG
CYP 2C9 = target: T1, CYP 2C9 (Homo sapiens, UniProt P11712); assay: CYP450 inhibition assay, CYP 2C9; assay type: in vitro ADME; set-up: dose or concentration left out as unconfirmed; conditions: CYP baculosomes with recombinant human CYP2C9, probe fluorogenic substrate (not named); human recombinant enzymes; read-out: Mean % inhibtion CYP 2C9
T1 construct: purchased; host or cells: baculosomes (insect-cell microsomes; own knowledge)
Experimental: (§1) The compounds originally dissolved in DMSO were added to PBS to give a resulting concentration of […]. CYP baculosomes containing cDNA for a single human P450 isozyme, the fluorogenic substrate and the NADPH were added to the test solution. The reaction was incubated at 37°C for at least 1 h. Fluorogenic substrates metabolized by CYP enzymes result in highly fluorescent products in aqueous solution. The inhibition of CYP prevents this metabolism, which corresponds to a decrease in the fluorescence signal. The fluorescence was measured on a plate reader.

[3] = Aqueous kinetic solubility; assay type: physicochemical; conditions: aqueous with cosolvent or surfactant or cyclodextrin, kinetic from dmso stock, 5% DMSO in PBS, 21°C
Experimental: The compounds were equilibrated in 5% DMSO in PBS at 21°C for 24 h. The samples were then centrifuged at 15000 g for 10 min. A 100 μL sample of the supernatant was carefully collected and the soluble amount of compound quantified using LC-MS/MS. A standard curve for each compound was prepared in 100% acetonitrile. Solubility results are reported as low (<0.1 mg/mL), medium (0.1–0.5 mg/mL) and high (>0.5 mg/mL).

CYP 2C19 = target: T2, CYP 2C19 (Homo sapiens, UniProt P33261); assay: CYP450 inhibition assay, CYP 2C19; assay type: in vitro ADME; set-up: dose or concentration left out as unconfirmed; conditions: CYP baculosomes with recombinant human CYP2C19, probe fluorogenic substrate (not named); human recombinant enzymes; read-out: Mean % inhibtion CYP 2C19
T2 construct: purchased; host or cells: baculosomes (insect-cell microsomes; own knowledge)
Experimental: as §1

CYP 2D6 = target: T3, CYP 2D6 (Homo sapiens, UniProt P10635); assay: CYP450 inhibition assay, CYP 2D6; assay type: in vitro ADME; set-up: dose or concentration left out as unconfirmed; conditions: CYP baculosomes with recombinant human CYP2D6, probe fluorogenic substrate (not named); human recombinant enzymes; read-out: Mean % inhibtion CYP 2D6
T3 construct: purchased; host or cells: baculosomes (insect-cell microsomes; own knowledge)
Experimental: as §1

P-glycoprotein = P-glycoprotein (Homo sapiens, UniProt P08183); assay: in vitro; conditions: dog, MDCK-MDR1
Experimental: All dose solutions contained 10 μM propranolol as an internal standard. MDCK cells carrying the MDR-1 gene were used to seed filters that were exposed to a fixed volume of the donor solution containing the compound of interest. The compound's ability to traverse the monolayer and appear in the receiver compartment was measured over a 30 min period. Bidirectional permeability measurements were derived by examining the transfer of compound from both the apical to the basolateral compartment and vice versa. Sample analysis was conducted using LC-MS/MS with the detection settings optimized for each test compound.

[4] = MDCK cell permeability assay; assay type: in vitro ADME, canine; conditions: dog, MDCK-MDR1; MDCK MDR-1 monolayer, class
[5] = system: MDCK cells carrying the MDR-1 gene; assay: MDCK cell permeability assay; assay type: in vitro ADME, canine; conditions: MDCK MDR-1 monolayer, 10 μM, 30 min, apical to basolateral
MDR-1 = assay: MDCK cell permeability assay; assay type: in vitro ADME, canine; conditions: dog, MDCK-MDR1, MDCK MDR-1 monolayer, 10 μM, 30 min
CYP 3A4 = target: T4, CYP 3A4 (Homo sapiens, UniProt P08684); assay: CYP450 inhibition assay, CYP 3A4; assay type: in vitro ADME; set-up: dose or concentration left out as unconfirmed; conditions: CYP baculosomes with recombinant human CYP3A4, probe fluorogenic substrate (not named); human recombinant enzymes; read-out: Mean % inhibtion CYP 3A4
T4 construct: purchased; host or cells: baculosomes (insect-cell microsomes; own knowledge)
Experimental: as §1

[6] = Human hepatocyte stability assay; assay type: in vitro ADME; set-up: half-life / hepatocyte CLint: dose or concentration left out as unconfirmed
Experimental: The compounds originally dissolved in DMSO were added to PBS to give a resulting concentration of 1 mM. Hepatocytes were then added to the solution and the reaction was incubated at 37°C for up to 120 min. Acetonitrile with internal standard was added to stop the incubation. The samples were centrifuged and the supernatant was then analysed by HPLC-MS/MS to detect the parent compound.

CYP 1A2 = target: T5, CYP 1A2 (Homo sapiens, UniProt P05177); assay: CYP450 inhibition assay, CYP 1A2; assay type: in vitro ADME; set-up: dose or concentration left out as unconfirmed; conditions: CYP baculosomes with recombinant human CYP1A2, probe fluorogenic substrate (not named); human recombinant enzymes; read-out: Mean % inhibtion CYP 1A2
T5 construct: purchased; host or cells: baculosomes (insect-cell microsomes; own knowledge)
T5 sequence (P05177 1-516): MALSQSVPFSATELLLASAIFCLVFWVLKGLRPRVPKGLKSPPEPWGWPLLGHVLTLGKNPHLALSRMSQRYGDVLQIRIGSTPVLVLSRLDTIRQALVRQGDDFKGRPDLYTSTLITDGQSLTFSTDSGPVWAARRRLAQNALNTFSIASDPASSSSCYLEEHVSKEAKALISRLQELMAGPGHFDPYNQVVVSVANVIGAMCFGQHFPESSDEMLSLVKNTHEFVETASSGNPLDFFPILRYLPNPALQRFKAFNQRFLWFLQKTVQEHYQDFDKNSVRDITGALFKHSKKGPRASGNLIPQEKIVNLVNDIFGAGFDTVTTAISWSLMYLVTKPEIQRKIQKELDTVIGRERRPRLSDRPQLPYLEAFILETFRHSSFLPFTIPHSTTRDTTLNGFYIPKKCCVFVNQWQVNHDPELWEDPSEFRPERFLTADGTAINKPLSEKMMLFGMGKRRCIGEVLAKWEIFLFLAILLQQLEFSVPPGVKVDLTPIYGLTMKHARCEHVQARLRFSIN
Experimental: as §1

[7] = Human microsome stability assay; assay type: in vitro ADME; set-up: half-life: dose or concentration left out as unconfirmed; conditions: for Mean % microsome turnover / Mean compound remaining / Microsomal stability: human liver microsomes
Experimental: Microsomes and NADPH were then added to the solution and the reaction was incubated at 37°C for up to 60 min. Acetonitrile (300 μL) with internal standard was added to stop the incubation. The samples were centrifuged and the supernatant was then analysed by HPLC-MS/MS to detect the parent compound.

[8] = system: murine macrophage cell line RAW264.7; set-up: method as in Gupta and Bhakta.[27]; conditions: ref Gupta and Bhakta.[27]; cited from earlier work
M. bovis BCG = assay type: cell-based; conditions: M. bovis BCG treated at 4 × MIC for 48 h (D-cycloserine 100 mg/L, 39 160 mg/L); 100 cells
[9] = RAW264.7, value in square brackets
[10] = murine macrophage cell line RAW264.7
[11] = SPOTi, value in square brackets, read-out: MIC M. tuberculosis H37Rv
[12] = 336 h, read-out: MIC M. bovis BCG, SPOTi, 2 weeks at 37°C
[13] = read-out: MIC M. bovis BCG, SPOTi, value in square brackets
[14] = 336 h, SPOTi, 2 weeks at 37°C, read-out: MIC M. tuberculosis H37Rv

Chain of MurE (Rv2158c) protein of M. tuberculosis H37Rv (P9WJL3 whole entry, looked up): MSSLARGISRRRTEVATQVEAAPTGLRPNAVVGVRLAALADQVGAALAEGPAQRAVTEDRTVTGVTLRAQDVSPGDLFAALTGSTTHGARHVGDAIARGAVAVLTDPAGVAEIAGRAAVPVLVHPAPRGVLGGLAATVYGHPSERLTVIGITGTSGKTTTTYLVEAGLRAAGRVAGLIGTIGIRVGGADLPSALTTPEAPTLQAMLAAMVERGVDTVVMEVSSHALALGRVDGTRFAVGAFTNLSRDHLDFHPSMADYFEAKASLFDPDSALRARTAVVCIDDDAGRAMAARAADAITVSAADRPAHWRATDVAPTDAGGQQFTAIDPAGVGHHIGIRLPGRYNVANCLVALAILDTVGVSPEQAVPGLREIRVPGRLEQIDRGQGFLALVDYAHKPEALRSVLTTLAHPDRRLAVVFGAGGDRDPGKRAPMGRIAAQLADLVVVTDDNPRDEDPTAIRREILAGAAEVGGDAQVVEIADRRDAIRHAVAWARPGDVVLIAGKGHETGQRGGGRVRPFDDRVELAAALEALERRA
Chain of P-glycoprotein (P08183 whole entry): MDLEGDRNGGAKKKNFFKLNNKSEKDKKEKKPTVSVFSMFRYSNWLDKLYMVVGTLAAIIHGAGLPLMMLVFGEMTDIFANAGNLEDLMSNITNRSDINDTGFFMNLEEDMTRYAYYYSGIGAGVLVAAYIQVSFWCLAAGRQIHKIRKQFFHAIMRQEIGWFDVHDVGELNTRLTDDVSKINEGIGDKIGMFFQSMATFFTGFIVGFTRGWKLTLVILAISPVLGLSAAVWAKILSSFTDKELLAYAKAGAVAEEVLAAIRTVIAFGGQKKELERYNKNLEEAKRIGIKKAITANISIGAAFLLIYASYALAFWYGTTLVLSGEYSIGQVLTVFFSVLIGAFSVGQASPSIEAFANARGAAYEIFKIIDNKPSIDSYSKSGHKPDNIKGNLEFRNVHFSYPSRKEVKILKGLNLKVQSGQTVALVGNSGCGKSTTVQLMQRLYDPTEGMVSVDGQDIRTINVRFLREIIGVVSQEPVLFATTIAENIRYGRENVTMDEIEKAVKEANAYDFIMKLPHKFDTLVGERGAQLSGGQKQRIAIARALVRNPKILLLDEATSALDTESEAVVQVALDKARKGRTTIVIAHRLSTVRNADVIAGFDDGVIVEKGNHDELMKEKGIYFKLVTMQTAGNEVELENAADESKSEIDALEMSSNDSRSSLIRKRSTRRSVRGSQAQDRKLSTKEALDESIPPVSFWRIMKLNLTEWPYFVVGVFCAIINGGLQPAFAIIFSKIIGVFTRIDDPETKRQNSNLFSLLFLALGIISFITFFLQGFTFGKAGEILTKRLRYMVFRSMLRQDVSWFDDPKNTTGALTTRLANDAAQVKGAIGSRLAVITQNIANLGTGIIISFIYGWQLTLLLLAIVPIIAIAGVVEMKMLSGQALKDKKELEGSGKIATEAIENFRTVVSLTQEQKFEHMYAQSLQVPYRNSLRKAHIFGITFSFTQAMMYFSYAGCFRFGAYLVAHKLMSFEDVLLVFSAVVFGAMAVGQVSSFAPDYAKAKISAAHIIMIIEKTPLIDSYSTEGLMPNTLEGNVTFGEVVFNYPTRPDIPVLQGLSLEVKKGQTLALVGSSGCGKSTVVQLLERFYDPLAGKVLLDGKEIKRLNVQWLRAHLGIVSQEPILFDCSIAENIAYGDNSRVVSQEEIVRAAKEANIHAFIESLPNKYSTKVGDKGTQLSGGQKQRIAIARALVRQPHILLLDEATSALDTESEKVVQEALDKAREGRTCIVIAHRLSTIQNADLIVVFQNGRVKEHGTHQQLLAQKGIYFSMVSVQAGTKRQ
T3 sequence (P10635 whole entry): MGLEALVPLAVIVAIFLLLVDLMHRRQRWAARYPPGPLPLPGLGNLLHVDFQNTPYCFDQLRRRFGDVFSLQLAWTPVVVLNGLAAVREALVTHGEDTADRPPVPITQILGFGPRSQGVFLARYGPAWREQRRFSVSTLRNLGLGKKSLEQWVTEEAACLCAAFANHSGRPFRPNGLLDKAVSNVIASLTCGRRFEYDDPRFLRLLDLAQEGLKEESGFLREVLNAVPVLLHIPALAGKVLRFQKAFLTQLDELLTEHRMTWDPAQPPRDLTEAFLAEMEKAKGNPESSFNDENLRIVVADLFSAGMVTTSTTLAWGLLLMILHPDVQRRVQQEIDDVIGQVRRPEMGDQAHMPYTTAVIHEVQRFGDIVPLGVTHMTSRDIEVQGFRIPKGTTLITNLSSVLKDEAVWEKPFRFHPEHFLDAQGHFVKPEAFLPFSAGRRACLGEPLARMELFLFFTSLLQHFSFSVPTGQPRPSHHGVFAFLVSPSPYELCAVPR
T4 sequence (P08684 whole entry): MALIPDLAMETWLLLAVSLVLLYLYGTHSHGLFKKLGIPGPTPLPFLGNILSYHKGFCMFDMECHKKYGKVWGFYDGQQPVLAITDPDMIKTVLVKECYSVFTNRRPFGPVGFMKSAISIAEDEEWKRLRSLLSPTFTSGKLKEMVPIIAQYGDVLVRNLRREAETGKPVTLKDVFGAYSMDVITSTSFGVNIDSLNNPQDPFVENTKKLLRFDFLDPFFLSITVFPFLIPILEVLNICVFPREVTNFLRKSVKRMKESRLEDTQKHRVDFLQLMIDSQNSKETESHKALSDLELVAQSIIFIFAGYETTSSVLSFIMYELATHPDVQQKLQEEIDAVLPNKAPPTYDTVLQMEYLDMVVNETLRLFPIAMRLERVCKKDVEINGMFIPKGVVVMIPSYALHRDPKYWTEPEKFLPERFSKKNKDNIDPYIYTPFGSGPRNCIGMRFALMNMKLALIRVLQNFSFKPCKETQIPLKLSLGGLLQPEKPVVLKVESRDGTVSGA
T1 sequence (P11712 whole entry): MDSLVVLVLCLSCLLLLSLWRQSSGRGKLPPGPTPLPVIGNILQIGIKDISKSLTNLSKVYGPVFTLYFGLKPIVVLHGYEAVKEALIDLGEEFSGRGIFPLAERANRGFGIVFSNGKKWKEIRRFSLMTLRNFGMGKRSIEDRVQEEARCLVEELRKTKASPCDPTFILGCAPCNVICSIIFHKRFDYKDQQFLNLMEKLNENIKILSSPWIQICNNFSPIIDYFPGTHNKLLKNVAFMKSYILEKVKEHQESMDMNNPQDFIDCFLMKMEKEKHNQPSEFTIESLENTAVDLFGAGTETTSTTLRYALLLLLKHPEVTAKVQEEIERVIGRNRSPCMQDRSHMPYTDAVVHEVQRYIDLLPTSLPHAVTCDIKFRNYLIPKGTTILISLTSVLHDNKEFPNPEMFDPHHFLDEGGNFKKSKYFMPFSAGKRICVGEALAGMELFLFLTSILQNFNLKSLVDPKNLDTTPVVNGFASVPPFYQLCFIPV
T2 sequence (P33261 whole entry): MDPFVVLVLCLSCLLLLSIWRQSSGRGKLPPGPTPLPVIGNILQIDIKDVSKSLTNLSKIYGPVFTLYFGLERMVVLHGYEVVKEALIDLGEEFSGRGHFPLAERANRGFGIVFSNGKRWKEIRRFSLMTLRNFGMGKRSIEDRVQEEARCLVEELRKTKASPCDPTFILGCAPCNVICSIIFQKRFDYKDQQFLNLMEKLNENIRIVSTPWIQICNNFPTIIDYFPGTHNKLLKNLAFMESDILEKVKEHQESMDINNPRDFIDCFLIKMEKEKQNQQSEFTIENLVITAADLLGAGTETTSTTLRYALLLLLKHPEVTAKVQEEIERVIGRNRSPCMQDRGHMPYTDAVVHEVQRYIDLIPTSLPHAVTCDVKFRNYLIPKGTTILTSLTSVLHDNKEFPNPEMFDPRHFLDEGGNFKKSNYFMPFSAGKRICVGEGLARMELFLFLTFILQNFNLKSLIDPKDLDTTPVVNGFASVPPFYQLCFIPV

## CCCCCCCCCC1NCCc2cc(O)c(O)cc21 (centres unmarked) [Compound 24]
M. smegmatis mc^2155
  MIC: 100 µg/mL (≈ 343 µM)
[1]; [9]
  IC50: 5.5 µM
[1]; [10]
  IC50: 1.6 µg/mL
[2]
  IC50: 186 µM
M. tuberculosis H37Rv; 336 h, read-out: MIC M. tuberculosis H37Rv, SPOTi, 2 weeks at 37°C
  MIC: 80 µg/mL
M. tuberculosis H37Rv; [11]
  MIC: 206 µM
M. tuberculosis H37Rv; SPOTi, 2 weeks at 37°C
  MIC M. tuberculosis H37Rv: 60 µg/mL (≈ 206 µM)
M. aurum
  MIC: 100 µg/mL (≈ 343 µM)
E. coli K12
  MIC: > 100 µg/mL
P. putida
  MIC: > 100 µg/mL
R. equi RHA1
  MIC: > 100 µg/mL
M. bovis BCG Pasteur; [12]
  MIC: > 60 µg/mL
M. bovis BCG Pasteur; [13]
  MIC: 275 µM
M. bovis BCG Pasteur; SPOTi, 2 weeks at 37°C
  MIC M. bovis BCG: 80 µg/mL (≈ 275 µM)

## Oc1ccc(Br)c2c1C(c1cccc3c1OCO3)NCC2 (centres unmarked) [Compound 35]
CYP 2C9
  inhibition: 44.9%
[1]; [9]
  IC50: 348 µM
[1]; [10]
  IC50: 121 µg/mL
[2]
  IC50: < 111 µM
[3]
  solubility kinetic at 24 h: 300 µg/mL (≈ 862 µM)
CYP 2C19
  inhibition: 98.2%
CYP 2D6
  inhibition: 80.7%
P-glycoprotein
  efflux ratio: 11.9
[4]
  Papp A→B at 30 min, 10 μM: 2 to 20 ×10⁻⁶ cm/s
[5]
  Papp A-B: 3.2 cm/sec, x10-6
MDR-1; apical to basolateral
  Papp A→B at 30 min, 10 μM: 3.2 ×10⁻⁶ cm/s
MDR-1; basolateral to apical
  Papp B→A at 30 min, 10 μM: 38 ×10⁻⁶ cm/s
CYP 3A4
  inhibition: 80%
[6]; hepatocyte stability assay
  hepatic extraction ratio: > 0.6
[6]; human, hepatocytes, human hepatocytes, read-out: t1/2 hepatocytes
  half-life: 1.31 h
[6]; human, hepatocytes, in vivo hepatic intrinsic clearance prediction values
  hepatocyte CLint: 12.6 µL/min/1e6 cells
CYP 1A2
  inhibition: 36.7%
[7]; 0 min
  Mean % microsome turnover: -5.55e-15%
  Mean compound remaining: 100.00
  Microsomal stability: 4.60
[7]; 15 min
  Mean % microsome turnover: 3.85%
  Mean compound remaining: 96.15
  Microsomal stability: 4.57
[7]; 30 min
  Mean % microsome turnover: 14.54%
  Mean compound remaining: 85.46
  Microsomal stability: 4.45
[7]; 60 min
  Mean % microsome turnover: 30.44%
  Mean compound remaining: 69.56
  Microsomal stability: 4.24
[7]; human, liver microsomes, read-out: t1/2 microsomes
  half-life: 1.83 h
M. bovis BCG Pasteur; [12]
  MIC: 60 µg/mL
M. bovis BCG Pasteur; [13]
  MIC: 172 µM

## CO[C@H]1/C=C/O[C@@]2(C)Oc3c(C)c(O)c4c(O)c(c(/C=N/N5CCN(C)CC5)c(O)c4c3C2=O)NC(=O)/C(C)=C\C=C\[C@H](C)[C@H](O)[C@@H](C)[C@@H](O)[C@@H](C)[C@H](OC(C)=O)[C@@H]1C [Rifampicin, reference compound]
M. smegmatis mc^2155
  MIC: 0.1 µg/mL (≈ 0.122 µM)
M. tuberculosis H37Rv; [14]
  MIC: 0.05 µg/mL
M. tuberculosis H37Rv; [11]
  MIC: 0.061 µM
M. aurum
  MIC: 0.1 µg/mL (≈ 0.122 µM)
[8]
  GIC50 RAW264.7: 700^a mg/L
M. bovis BCG Pasteur; [12]
  MIC: 0.05 µg/mL
M. bovis BCG Pasteur; [13]
  MIC: 0.061 µM

## COc1ccc(Cl)c2c1C(Cc1cc3c(cc1Br)OCO3)NCC2 (centres unmarked) [Compound 39]
[1]; [9]
  IC50: 178 µM
[1]; [10]
  IC50: 73 µg/mL
M. tuberculosis H37Rv; [14]
  MIC: 40 µg/mL
M. tuberculosis H37Rv; [11]
  MIC: 97 µM
M. bovis BCG Pasteur; [12]
  MIC: 40 µg/mL
M. bovis BCG Pasteur; [13]
  MIC: 97 µM
M. bovis BCG
  cell length: 4.7 ± 1.4 μm

## N[C@@H]1CON=C1O [D-cycloserine, reference compound]
M. bovis BCG Pasteur; [12]
  MIC: 25 µg/mL
M. bovis BCG
  cell length: 4.2 ± 1.0 μm
